From US7498347B2, “Hydroxycarbonylphenyl substituted 4-(aminomethyl)-piperidine benzamides as 5HT4 antagonists” (Janssen Pharmaceutica, N.V., priority 2004, dated 2009)
Structures can show the parent of a compound that is named as a salt.

Legend:
[1] = target: T1, h5-HT4b (Homo sapiens, UniProt Q13639); assay: 5HT4 antagonism: [3H]GR113808 binding to membranes of h5-HT4b-HEK 293 clone 9 cells; conditions: displacement of [3H]GR113808 0.1 nM, h5-HT4b-HEK 293 membranes, 30 min at 25° C.; read-out: pIC50 (5HT4 antagonistic data) (converted)
T1 construct: expressed in transfected cells; host or cells: HEK 293 (clone 9), membrane preparation
T1 sequence (Q13639 whole entry): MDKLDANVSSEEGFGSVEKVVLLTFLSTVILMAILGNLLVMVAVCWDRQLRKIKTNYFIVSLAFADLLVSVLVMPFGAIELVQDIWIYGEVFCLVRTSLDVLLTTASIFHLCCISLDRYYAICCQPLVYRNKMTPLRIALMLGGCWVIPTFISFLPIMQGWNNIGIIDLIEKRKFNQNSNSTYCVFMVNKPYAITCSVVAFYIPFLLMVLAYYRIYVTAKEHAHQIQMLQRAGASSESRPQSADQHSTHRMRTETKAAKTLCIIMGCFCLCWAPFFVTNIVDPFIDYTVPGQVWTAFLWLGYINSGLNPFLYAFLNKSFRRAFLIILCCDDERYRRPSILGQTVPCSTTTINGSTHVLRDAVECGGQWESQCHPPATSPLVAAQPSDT
Protocol: h5-HT4b-HEK 293 clone 9 cells were cultured in 150 mm Petri dishes and washed twice with cold PBS. The cells were then scraped from the plates and suspended in 50 mM Tris-HCl buffer, pH 7.4 and harvested by centrifugation at 23,500 rpm for 10 minutes. The pellet was resuspended in 5 mM Tris-HCl, pH 7.4 and homogenized with an Ultra Turrax homogenizer. The membranes were collected by centrifugation at 30,000 rpm for 20 min, resuspended in 50 mM Tris-HCl pH 7.4 and stored at −80° C. For the experiment, assay mixtures (0.5 ml) contained 50 μl of the tritiated ligand (5-HT4 antagonist [^3H]GR113808 0.1 nM) and 0.4 ml membrane preparation (15 μg protein/ml). 50 μl of 10% DMSO was added for total binding. 50 μl of 1 μM of (+)-trans-(1-butyl-3-hydroxy-4-piperidinyl)methyl 8-amino-7-chloro-2,3-dihydro-1,4-benzodioxin-5-carboxylate (a proprietary 5HT4 agonist of Janssen Pharmaceutica) was added for determination of non-specific binding.
The [^3H]GR113808 assay buffer was 50 mM HEPES-NaOH, pH 7.4. The mixtures were incubated for 30 min at 25° C. The incubation was terminated by filtration over a Unifilter 96 GF/B presoaked in 0.1% polyethylenimine, followed by six washing steps with 50 mM HEPES-NaOH, pH 7.4.

[2] = Metabolic stability in liver microsomes, LC-MS analysis; assay type: in vitro ADME; conditions: compound 5 μM, microsomes 1 mg/ml, NADPH-generating system, 60 minutes at 37 degrees Celsius
Protocol: Sub-cellular tissue preparations were made according to Gorrod et al. (Xenobiotica 5: 453-462, 1975) by centrifugal separation after mechanical homogenization of tissue. Liver tissue was rinsed in ice-cold 0.1 M Tris-HCl (pH 7.4) buffer to wash excess blood. Tissue was then blotted dry, weighed and chopped coarsely using surgical scissors. The tissue pieces were homogenized in 3 volumes of ice-cold 0.1 M phosphate buffer (pH 7.4).
Tissue homogenates were centrifuged at 9000×g for 20 minutes at 4° C. The resulting supernatant was stored at −80° C. and is designated ‘S9’.
The S9 fraction can be further centrifuged at 100.000×g for 60 minutes (4° C.). The resulting supernatant was carefully aspirated, aliquoted and designated ‘cytosol’. The pellet was re-suspended in 0.1 M phosphate buffer (pH 7.4) in a final volume of 1 ml per 0.5 g original tissue weight and designated ‘microsomes’.
All sub-cellular fractions were aliquoted, immediately frozen in liquid nitrogen and stored at −80° C. until use.
For the samples to be tested, the incubation mixture contained PBS (0.1M), compound (5 μM), microsomes (1 mg/ml) and a NADPH-generating system (0.8 mM glucose-6-phosphate, 0.8 mM magnesium chloride and 0.8 Units of glucose-6-phosphate dehydrogenase). Control samples contained the same material but the microsomes were replaced by heat inactivated (10 minutes at 95 degrees Celsius) microsomes. Recovery of the compounds in the control samples was always 100%.
The mixtures were preincubated for 5 minutes at 37 degrees Celsius. The reaction was started at time point zero (t=0) by addition of 0.8 mM NADP and the samples were incubated for 60 minutes (t=60). The reaction was terminated by the addition of 2 volumes of DMSO. Then the samples were centrifuged for 10 minutes at 900×g and the supernatants were stored at room temperature for no longer as 24 hours before analysis. All incubations were performed in duplo. Analysis of the supernatants was performed with LC-MS analysis. Elution of the samples was performed on a Xterra MS C18 (50×4.6 mm, 5 μm, Waters, US). An Alliance 2790 (Supplier: Waters, US) HPLC system was used. Elution was with buffer A (25 mM ammoniumacetate (pH 5.2) in H2O/acetonitrile (95/5)), solvent B being acetonitrile and solvent C methanol at a flow rate of 2.4 ml/min. The gradient employed was increasing the organic phase concentration from 0% over 50% B and 50% C in 5 min up to 100% B in 1 minute in a linear fashion and organic phase concentration was kept stationary for an additional 1.5 minutes. Total injection volume of the samples was 25 μl.
A Quatro triple quadrupole mass spectrometer fitted with and ESP source was used as detector. The source and the desolvation temperature were set at 120 and 350° C. respectively and nitrogen was used as nebuliser and drying gas. Data were acquired in positive scan mode (single ion reaction). Cone voltage was set at 10 V and the dwell time was 1 second.
Metabolic stability was expressed as % metabolism of the compound after 60 minutes (equation given as example) of incubation in the presence of active microsomes (E(act))

SMILES	melting point	IC50 [1]	% metabolized (% metabolised compound after 60 minutes) [2]
Cc1cc2c(c(C(=O)NC[C@@H]3CCN(CCOc4ccc(C(=O)O)cc4)C[C@H]3O)c1)OCCCO2 [compound 6]	175 °C	63.1 nM	
O=C(O)c1ccccc1OCCCN1CC[C@@H](CNC(=O)c2cc(Cl)cc3c2OCCCO3)[C@H](O)C1 (relative stereo) [compound 7]	148 °C	79.4 nM	14%
Cc1cc2c(c(C(=O)NC[C@@H]3CCN(CCCCOc4ccc(C(=O)O)cc4)C[C@H]3O)c1)OCCCO2 [compound 2]	188 °C	9.55 nM	6%
Cc1ccc(C(=O)NC[C@@H]2CCN(CCCCOc3ccc(C(=O)O)cc3)C[C@H]2O)c2c1OCCCO2 [compound 3]	170 °C	4.9 nM	16%
Cc1cc2c(c(C(=O)NC[C@@H]3CCN(CCCOc4ccccc4C(=O)O)C[C@H]3O)c1)OCCCO2 [Co. No. 1]	114 °C		
Cc1cc2c(c(C(=O)NC[C@@H]3CCN(CCCOc4ccccc4C(=O)O)C[C@H]3O)c1)OCCCO2 [compound 1]		120 nM	
Cc1ccc(C(=O)NC[C@@H]2CCN(CCOc3ccc(C(=O)O)cc3)C[C@H]2O)c2c1OCCCO2 (hydrate or solvate) [compound 8]	> 120 °C		
O=C(O)c1ccc(OCCN2CC[C@@H](CNC(=O)c3cc(Cl)cc4c3OCCCO4)[C@H](O)C2)cc1 [compound 4]	220 to 225 °C	14.5 nM	
O=C(O)c1ccc(OCCCCN2CC[C@@H](CNC(=O)c3cc(Cl)cc4c3OCCCO4)[C@H](O)C2)cc1 [compound 5]	190 °C	5.13 nM	15%
Cc1ccc(C(=O)NC[C@@H]2CCN(CCOc3ccc(C(=O)O)cc3)C[C@H]2O)c2c1OCCCO2 [compound 8]		42.7 nM	

Second part, the molecule after the results:

melting point	IC50 [1]	% metabolized (% metabolised compound after 60 minutes) [2]	SMILES
200 °C	7.76 nM		CO[C@@H]1CN(CCCOc2ccc(C(=O)O)cc2)CC[C@H]1CNC(=O)c1cc(Cl)c(Cl)c2c1OCCCO2 (relative stereo) [compound 20]
	13.5 nM	6%	COC1CN(CCCOc2ccc(C(=O)O)cc2)CCC1CNC(=O)c1cc(C)cc2c1OCCCO2 (stereo not shown) [compound 22]
120 °C	8.51 nM	1%	Cc1ccc(C(=O)NC[C@@H]2CCN(CCCOc3cccc(C(=O)O)c3)C[C@H]2O)c2c1OCCCO2 [compound 11]
122 °C	23.4 nM	0%	Cc1cc2c(c(C(=O)NCC3CCN(CCCOc4cccc(C(=O)O)c4)CC3O)c1)OCCCO2 (stereo not shown) [compound 12]
118 °C	20.9 nM		Cc1cc2c(c(C(=O)NC[C@@H]3CCN(CCCOc4ccc(C(=O)O)cc4)C[C@H]3O)c1)OCCCO2 (relative stereo) [compound 13]
	7.59 nM	3%	O=C(O)c1ccc(OCCCN2CCC(CNC(=O)c3cc(Cl)c(Cl)c4c3OCCCO4)C(O)C2)cc1 (stereo not shown) [compound 16]
268 °C			O=C(O)c1ccc(OCCCN2CC[C@@H](CNC(=O)c3cc(Cl)c(Br)c4c3OCCCO4)[C@H](O)C2)cc1 (relative stereo) (as salt: HCl) (hydrate or solvate) [compound 17]
256 °C			O=C(O)c1ccc(OCCCN2CCC(CNC(=O)c3cc(Cl)c(Cl)c4c3OCCCO4)C(O)C2)cc1 (stereo not shown) (as salt: HCl) [compound 16]
179.4 to 189.2 °C	66.1 nM		COc1ccc(C(=O)NCC2CCN(CCCOc3ccc(C(=O)O)cc3)CC2OC)c2c1OCCCO2 (stereo not shown) [compound 21]
155 °C	8.71 nM	0%	Cc1ccc(C(=O)NC[C@@H]2CCN(CCCOc3ccc(C(=O)O)cc3)C[C@H]2O)c2c1OCCCO2 [compound 14]
122 °C	11.2 nM	7.5%	O=C(O)c1ccc(OCCCN2CCC(CNC(=O)c3cc(Cl)cc4c3OCCCO4)C(O)C2)cc1 (stereo not shown) [compound 9]
	5.62 nM	6%	O=C(O)c1ccc(OCCCN2CC[C@@H](CNC(=O)c3cc(Cl)c(Br)c4c3OCCCO4)[C@H](O)C2)cc1 (relative stereo) [compound 17]
